Measurements taken from PubChem BioAssay (NCI).
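Cultured in 96-well plates, cells were exposed to test compound for 48 hours across five concentrations. The concentration for 50% growth inhibition is given as GI50. At the TGI there is no net growth.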

Tests used:
Assay in all cases: inhibition of tumour cell growth, NCI panel, 48 h
786-0 renal = test system: 786-0 renal
A498 renal = test system: A498 renal
A549 NSCLC = test system: A549 NSCLC
ACHN renal = test system: ACHN renal
BT-549 breast = test system: BT-549 breast
CAKI-1 renal = test system: CAKI-1 renal
CCRF-CEM leukemia = test system: CCRF-CEM leukemia
COLO 205 colon = test system: COLO 205 colon
DU-145 prostate = test system: DU-145 prostate
EKVX NSCLC = test system: EKVX NSCLC
HCC-2998 colon = test system: HCC-2998 colon
HCT-116 colon = test system: HCT-116 colon
HCT-15 colon = test system: HCT-15 colon
HL-60(TB) leukemia = test system: HL-60(TB) leukemia
HOP-62 NSCLC = test system: HOP-62 NSCLC
HOP-92 NSCLC = test system: HOP-92 NSCLC
HS 578T breast = test system: HS 578T breast
HT29 colon = test system: HT29 colon
IGROV1 ovarian = test system: IGROV1 ovarian
K-562 leukemia = test system: K-562 leukemia
KM12 colon = test system: KM12 colon
M14 melanoma = test system: M14 melanoma
MALME-3M melanoma = test system: MALME-3M melanoma
MCF7 breast = test system: MCF7 breast
MDA-MB-231 breast = test system: MDA-MB-231 breast
MDA-MB-435 = test system: MDA-MB-435
MOLT-4 leukemia = test system: MOLT-4 leukemia
NCI-H226 lung = test system: NCI-H226 lung
NCI-H23 lung = test system: NCI-H23 lung
NCI-H460 lung = test system: NCI-H460 lung
NCI-H522 lung = test system: NCI-H522 lung
NCI/ADR-RES ovarian = test system: NCI/ADR-RES ovarian
OVCAR-4 ovarian = test system: OVCAR-4 ovarian
OVCAR-5 ovarian = test system: OVCAR-5 ovarian
OVCAR-8 ovarian = test system: OVCAR-8 ovarian
PC-3 prostate = test system: PC-3 prostate
RPMI-8226 leukemia = test system: RPMI-8226 leukemia
RXF 393 renal = test system: RXF 393 renal
SF-268 CNS = test system: SF-268 CNS
SF-295 CNS = test system: SF-295 CNS
SF-539 CNS = test system: SF-539 CNS
SK-MEL-2 melanoma = test system: SK-MEL-2 melanoma
SK-MEL-28 melanoma = test system: SK-MEL-28 melanoma
SK-MEL-5 melanoma = test system: SK-MEL-5 melanoma
SK-OV-3 ovarian = test system: SK-OV-3 ovarian
SN12C renal = test system: SN12C renal
SNB-19 CNS = test system: SNB-19 CNS
SNB-75 CNS = test system: SNB-75 CNS
SR leukemia = test system: SR leukemia
SW-620 colon = test system: SW-620 colon
T-47D breast = test system: T-47D breast
TK-10 renal = test system: TK-10 renal
U251 CNS = test system: U251 CNS
UACC-257 melanoma = test system: UACC-257 melanoma
UACC-62 melanoma = test system: UACC-62 melanoma
UO-31 renal = test system: UO-31 renal

Compound: Nc1cc(F)ccc1NC(=O)c1ccc(NC(=O)C/C=C/c2cccnc2)cn1
- GI50 (786-0 renal): 2.2 µM
- TGI (786-0 renal): > 50 µM
- GI50 (A498 renal): 0.937 µM
- TGI (A498 renal): 3.37 µM
- GI50 (A549 NSCLC): 3.02 µM
- TGI (A549 NSCLC): > 50 µM
- GI50 (ACHN renal): 2.21 µM
- TGI (ACHN renal): > 50 µM
- GI50 (BT-549 breast): 1.3 µM
- TGI (BT-549 breast): 8.31 µM
- GI50 (CAKI-1 renal): 1.88 µM
- TGI (CAKI-1 renal): 13.8 µM
- GI50 (CCRF-CEM leukemia): 0.2 µM
- TGI (CCRF-CEM leukemia): > 50 µM
- GI50 (COLO 205 colon): 0.576 µM
- TGI (COLO 205 colon): 10.4 µM
- GI50 (DU-145 prostate): 1.1 µM
- TGI (DU-145 prostate): 5.16 µM
- GI50 (EKVX NSCLC): 2.49 µM
- TGI (EKVX NSCLC): > 50 µM
- GI50 (HCC-2998 colon): 1.43 µM
- TGI (HCC-2998 colon): 6.98 µM
- GI50 (HCT-116 colon): 0.186 µM
- TGI (HCT-116 colon): 3.42 µM
- GI50 (HCT-15 colon): 0.667 µM
- TGI (HCT-15 colon): > 50 µM
- GI50 (HL-60(TB) leukemia): 0.525 µM
- TGI (HL-60(TB) leukemia): > 50 µM
- GI50 (HOP-62 NSCLC): 1.99 µM
- TGI (HOP-62 NSCLC): > 50 µM
- GI50 (HOP-92 NSCLC): 0.699 µM
- TGI (HOP-92 NSCLC): 10.9 µM
- GI50 (HS 578T breast): 1.3 µM
- TGI (HS 578T breast): > 50 µM
- GI50 (HT29 colon): 1.5 µM
- TGI (HT29 colon): > 50 µM
- GI50 (IGROV1 ovarian): 0.804 µM
- TGI (IGROV1 ovarian): > 50 µM
- GI50 (K-562 leukemia): 0.302 µM
- TGI (K-562 leukemia): > 50 µM
- GI50 (KM12 colon): 2.8 µM
- TGI (KM12 colon): > 50 µM
- GI50 (M14 melanoma): 0.563 µM
- TGI (M14 melanoma): > 50 µM
- GI50 (MALME-3M melanoma): 0.465 µM
- TGI (MALME-3M melanoma): 4.81 µM
- GI50 (MCF7 breast): 1.11 µM
- TGI (MCF7 breast): 10 µM
- GI50 (MDA-MB-231 breast): 8.61 µM
- TGI (MDA-MB-231 breast): > 50 µM
- GI50 (MDA-MB-435): 1.25 µM
- TGI (MDA-MB-435): 7.18 µM
- GI50 (MOLT-4 leukemia): 0.908 µM
- TGI (MOLT-4 leukemia): > 50 µM
- GI50 (NCI-H226 lung): 2.3 µM
- TGI (NCI-H226 lung): > 50 µM
- GI50 (NCI-H23 lung): 1.68 µM
- TGI (NCI-H23 lung): 37.9 µM
- GI50 (NCI-H460 lung): 1.43 µM
- TGI (NCI-H460 lung): > 50 µM
- GI50 (NCI-H522 lung): 0.629 µM
- TGI (NCI-H522 lung): 30 µM
- GI50 (NCI/ADR-RES ovarian): 1.31 µM
- TGI (NCI/ADR-RES ovarian): > 50 µM
- GI50 (OVCAR-4 ovarian): 2.21 µM
- TGI (OVCAR-4 ovarian): > 50 µM
- GI50 (OVCAR-5 ovarian): 0.781 µM
- TGI (OVCAR-5 ovarian): > 50 µM
- GI50 (OVCAR-8 ovarian): 0.147 µM
- TGI (OVCAR-8 ovarian): > 50 µM
- GI50 (PC-3 prostate): 1.11 µM
- TGI (PC-3 prostate): > 50 µM
- GI50 (RPMI-8226 leukemia): 0.24 µM
- TGI (RPMI-8226 leukemia): 2.05 µM
- GI50 (RXF 393 renal): 0.938 µM
- TGI (RXF 393 renal): 3.48 µM
- GI50 (SF-268 CNS): 2.24 µM
- TGI (SF-268 CNS): > 50 µM
- GI50 (SF-295 CNS): 1.8 µM
- TGI (SF-295 CNS): 7.36 µM
- GI50 (SF-539 CNS): 0.177 µM
- TGI (SF-539 CNS): 4 µM
- GI50 (SK-MEL-2 melanoma): 2.01 µM
- TGI (SK-MEL-2 melanoma): > 50 µM
- GI50 (SK-MEL-28 melanoma): 1.35 µM
- TGI (SK-MEL-28 melanoma): 4.23 µM
- GI50 (SK-MEL-5 melanoma): 0.96 µM
- TGI (SK-MEL-5 melanoma): 1.9 µM
- GI50 (SK-OV-3 ovarian): 2.58 µM
- TGI (SK-OV-3 ovarian): > 50 µM
- GI50 (SN12C renal): 0.364 µM
- TGI (SN12C renal): > 50 µM
- GI50 (SNB-19 CNS): 2.15 µM
- TGI (SNB-19 CNS): > 50 µM
- GI50 (SNB-75 CNS): 0.794 µM
- TGI (SNB-75 CNS): 47.3 µM
- GI50 (SR leukemia): 0.876 µM
- TGI (SR leukemia): > 50 µM
- GI50 (SW-620 colon): 0.208 µM
- TGI (SW-620 colon): 12.5 µM
- GI50 (T-47D breast): 0.75 µM
- TGI (T-47D breast): > 50 µM
- GI50 (TK-10 renal): 0.673 µM
- TGI (TK-10 renal): 8.16 µM
- GI50 (U251 CNS): 1.51 µM
- TGI (U251 CNS): > 50 µM
- GI50 (UACC-257 melanoma): 1.65 µM
- TGI (UACC-257 melanoma): > 50 µM
- GI50 (UACC-62 melanoma): 1.31 µM
- TGI (UACC-62 melanoma): 5.95 µM
- GI50 (UO-31 renal): 1.63 µM
- TGI (UO-31 renal): > 50 µM
